Here are results for 18 compounds from US10611740B2, “Aryl dihydro-2H-benzo[b][1,4]oxazine sulfonamide and related compounds for use as agonists of RORγ and the treatment of disease” (Lycera Corporation, priority 2015, dated 2020).

In general, EC50 refers to the concentration needed to bring the measured effect to its halfway point.

The target in this assay is T1, RORγ-LBD (Homo sapiens, UniProt P51449).
T1 construct: made in house; host or cells: SF9 cells (baculovirus)
T1 sequence (P51449 269-508 limits assumed): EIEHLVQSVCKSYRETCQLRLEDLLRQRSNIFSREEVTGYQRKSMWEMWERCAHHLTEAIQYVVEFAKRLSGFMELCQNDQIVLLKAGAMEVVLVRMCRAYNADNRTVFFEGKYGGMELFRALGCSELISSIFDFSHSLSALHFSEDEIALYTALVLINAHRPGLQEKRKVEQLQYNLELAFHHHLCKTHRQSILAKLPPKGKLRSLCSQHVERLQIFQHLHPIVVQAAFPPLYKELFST
As to the kind of experiment: RORγ-Ligand Binding Domain (LBD) TR-FRET Assay.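 For TR-FRET Assay Max Response: 665/615 nm ratio relative to signal without ursolic acid or compound set at 100.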 The class given is biochemical. The method, then:
Assay procedures and results are described below.
HIS-tagged RORγ-LBD protein was expressed in SF9 cells using a baculovirus expression system. The lysate was diluted in assay buffer (50 mM Tris pH 7.0, 50 mM KCl, 1 mM EDTA, 0.1 mM DTT, 0.01% BSA) to obtain RORγ-LBD final concentration of ˜3 nM in a 384-well assay plate (need to titrate for each batch of protein).
A stock of biotinylated-LXXLL peptide from coactivator SRC1 (Biotin-[…]) was prepared in assay buffer and added to each well (200 nM final concentration). […] RORγ antagonist ursolic acid was also included at a final concentration of 2 μM. Compounds were diluted in DMSO and further diluted in assay buffer with a final DMSO concentration at 1%.
On the technique in general: Time-resolved FRET reads energy transfer from a long-lived donor to a nearby acceptor.
As for `C[C@H](C[C@H]1CN(S(=O)(=O)c2cccc(C(F)(F)F)c2)c2cc(-c3cc(Cl)cc(OC(F)F)c3)ccc2O1)C(=O)O` [Compound 46Q, (R)-3-((S)-6-(3-chloro-5-(difluoromethoxy)phenyl)-4-((3-(trifluoromethyl)phenyl)sulfonyl)-3,4-dihydro-2H-benzo[b][1,4]-oxazin-2-yl)-2-methylpropanoic acid], the half-maximal effective concentration (EC50) is less than 500 nM and the “TR-FRET Assay Max Response” value is “*** (The symbol “***” indicates a value in the range of greater than 150 to 200)”. With `CC(=O)NC1(C[C@H]2CN(S(=O)(=O)c3cccc(C(F)(F)F)c3)c3cc(-c4cc(F)ccc4F)ccc3O2)CCOCC1` [Compound 78J, (S)-N-(4-((6-(2,5-difluorophenyl)-4-((3-(trifluoromethyl)phenyl)-sulfonyl)-3,4-dihydro-2H-benzo[b][1,4]oxazin-2-yl)methyl)tetrahydro-2H-pyran-4 yl)acetamide], the EC50 was less than 500 nM and the “TR-FRET Assay Max Response” value is reported as “*** (The symbol “***” indicates a value in the range of greater than 150 to 200)”. The like results for `C[C@@H](C[C@H]1CN(S(=O)(=O)c2cccc(C(F)(F)F)c2)c2cc(-c3cc(F)cc(F)c3Cl)cc(F)c2O1)C(=O)O` [Compound 46I, (S)-3-((S)-6-(2-chloro-3,5-difluorophenyl)-8-fluoro-4-((3-(trifluoromethyl)phenyl)sulfonyl)-3,4-dihydro-2H-benzo[b][1,4]-oxazin-2-yl)-2-methylpropanoic acid] were, in that order, less than 500 nM and “*** (The symbol “***” indicates a value in the range of greater than 150 to 200)”. The like results for `O=C(O)[C@H]1C[C@@H]([C@H]2CN(S(=O)(=O)c3cccc(C(F)(F)F)c3)c3cc(-c4cc(F)cc(OC(F)F)c4)ccc3O2)C1` [Compound 60J, (1R,3s)-3-((S)-6-(3-(difluoro-methoxy)-5-fluorophenyl)-4-((3-(trifluoromethyl)phenyl)-sulfonyl)-3,4-dihydro-2H-benzo[b][1,4]-oxazin-2-yl)cyclobutane-1-carboxylic acid] were, in that order, less than 500 nM and “*** (The symbol “***” indicates a value in the range of greater than 150 to 200)”. Regarding `O=C(O)[C@H]1C[C@H]([C@H]2CN(S(=O)(=O)c3cccc(C(F)(F)F)c3)c3cc(-c4cc(F)cc(OC(F)F)c4)ccc3O2)C1` [Compound 60K, (1S,3r)-3-((S)-6-(3-(difluoro-methoxy)-5-fluorophenyl)-4-((3-(trifluoromethyl)phenyl)-sulfonyl)-3,4-dihydro-2H-benzo[b][1,4]oxazin-2-yl)cyclobutane-1-carboxylic acid], the 50% effective concentration (EC50) is less than 500 nM and the “TR-FRET Assay Max Response” value is given as “** (The symbol “**” indicates a value in the range of greater than 90 to 150)”.

On to `CN(C)c1nccc(-c2ccc3c(c2)N(S(=O)(=O)c2cccc(C(F)(F)F)c2)C[C@H](CCC(=O)O)O3)n1` [Compound 4AV, (S)-3-(6-(2-(dimethylamino)-pyrimidin-4-yl)-4-((3-(trifluoromethyl)phenyl)-sulfonyl)-3,4-dihydro-2H-benzo[b][1,4]oxazin-2-yl)propanoic acid], for which the concentration for a half-maximal effect (EC50) is 500 to 5000 nM and the “TR-FRET Assay Max Response” value was “*** (The symbol “***” indicates a value in the range of greater than 150 to 200)”. In the same order, the values of `O=C(O)CC[C@@H]1CN(S(=O)(=O)c2cccc(C(F)(F)F)c2)c2cc(-c3cc(F)ccc3F)ccc2O1` [Compound 2BP, (R)-3-(6-(2,5-difluorophenyl)-4-((3-(trifluoromethyl)phenyl)-sulfonyl)-3,4-dihydro-2H-benzo[b][1,4]oxazin-2-yl)propanoic acid] are less than 500 nM and “*** (The symbol “***” indicates a value in the range of greater than 150 to 200)”. Consider `O=C(O)CC[C@H]1CN(S(=O)(=O)c2cccc(C(F)(F)F)c2)c2cc(-c3cc(F)cc(OC(F)F)c3)c(Cl)cc2O1` [Compound 22N, (S)-3-(7-chloro-6-(3-(difluoro-methoxy)-5-fluorophenyl)-4-((3-(trifluoromethyl)phenyl)sulfonyl)-3,4-dihydro-2H-benzo[b][1,4]-oxazin-2-yl)propanoic acid], for which the concentration for a half-maximal effect (EC50) was less than 500 nM.

With `CC(=O)NC1(C[C@H]2CN(S(=O)(=O)c3cccc(C(F)(F)F)c3)c3cc(-c4cc(F)cc(OC(F)F)c4)ccc3O2)CCOCC1` [Compound 78I, (S)-N-(4-((6-(3-(difluoro-methoxy)-5-fluorophenyl)-4-((3-(trifluoromethyl)phenyl)sulfonyl)-3,4-dihydro-2H-benzo[b][1,4]-oxazin-2-yl)methyl)tetrahydro-2H-pyran-4-yl)acetamide], the EC50 is less than 500 nM and the “TR-FRET Assay Max Response” value is “*** (The symbol “***” indicates a value in the range of greater than 150 to 200)”.

As for `O=C(O)CC[C@H]1CN(S(=O)(=O)c2cccc(C(F)(F)F)c2)c2cc(-c3cccc(C(F)(F)F)n3)c(Cl)cc2O1` [Compound 22F, (S)-3-(7-chloro-4-((3-(trifluoromethyl)phenyl)sulfonyl)-6-(6-(trifluoromethyl)pyridin-2-yl)-3,4-dihydro-2H-benzo[b][1,4]-oxazin-2-yl)propanoic acid], the EC50 is more than 10000 nM. In the case of `O=C(O)C1(C[C@H]2CN(S(=O)(=O)c3cccc(C(F)(F)F)c3)c3cc(-c4cc(F)ccc4F)ccc3O2)CCOCC1` [Compound 57, (S)-4-((6-(2,5-difluorophenyl)-4-((3-(trifluoromethyl)phenyl)sulfonyl)-3,4-dihydro-2H-benzo[b][1,4]oxazin-2-yl)methyl)tetrahydro-2H-pyran-4-carboxylic acid], the concentration giving a half-maximal response (EC50) was less than 500 nM and the “TR-FRET Assay Max Response” value is listed as “*** (The symbol “***” indicates a value in the range of greater than 150 to 200)”. The like results for `C[C@@H](CC(=O)O)[C@H]1CN(S(=O)(=O)c2cccc(C(F)(F)F)c2)c2cc(-c3cc(F)cc(OC(F)F)c3)ccc2O1` [Compound 80A, (S)-3-((S)-6-(3-(difluoro-methoxy)-5-fluorophenyl)-4-((3-(trifluoromethyl)phenyl)sulfonyl)-3,4-dihydro-2H-benzo[b][1,4]-oxazin-2-yl)butanoic acid] were, in that order, less than 500 nM and “*** (The symbol “***” indicates a value in the range of greater than 150 to 200)”. The like results for `N#CC1(C(=O)NC[C@H]2CN(S(=O)(=O)c3cccc(C(F)(F)F)c3)c3cc(-c4cccc(F)c4Cl)ccc3O2)CC1` [Compound 30BL, (S)-N-((6-(2-chloro-3-fluoro-phenyl)-4-((3-(trifluoromethyl)-phenyl)sulfonyl)-3,4-dihydro-2H-benzo[b][1,4]oxazin-2-yl)methyl)-1-cyanocyclo-propane-1-carboxamide] were, in that order, less than 500 nM and “*** (The symbol “***” indicates a value in the range of greater than 150 to 200)”.

For `C[C@@H](C[C@H]1CN(S(=O)(=O)c2cccc(C(F)(F)F)c2)c2cc(-c3cc(F)cc(F)c3)ccc2O1)C(=O)O` [Compound 46S, (S)-3-((S)-6-(3,5-difluorophenyl)-4-((3-(trifluoromethyl)phenyl)-sulfonyl)-3,4-dihydro-2H-benzo[b][1,4]oxazin-2-yl)-2-methylpropanoic acid], the concentration for a half-maximal effect (EC50) was less than 500 nM and the “TR-FRET Assay Max Response” value was “*** (The symbol “***” indicates a value in the range of greater than 150 to 200)”. Take `O=C(O)C1(C[C@@H]2CN(S(=O)(=O)c3cccc(C(F)(F)F)c3)c3cc(-c4cc(F)ccc4F)ccc3O2)CCC1` [Compound 32AQ, (R)-1-((6-(2,5-difluorophenyl)-4-((3-(trifluoromethyl)phenyl)-sulfonyl)-3,4-dihydro-2H-benzo[b][1,4]oxazin-2-yl)methyl)cyclobutane-1-carboxylic acid]: the EC50 fell in the range of 500 to 5000 nM and the “TR-FRET Assay Max Response” value is listed as “** (The symbol “**” indicates a value in the range of greater than 90 to 150)”. For `C[C@H](C[C@H]1CN(S(=O)(=O)c2cccc(C(F)(F)F)c2)c2cc(-c3cccc(C(F)(F)F)n3)ccc2O1)C(=O)O` [Compound 46U, (R)-2-methyl-3-((S)-4-((3-(trifluoromethyl)phenyl)sulfonyl)-6-(6-(trifluoromethyl)pyridin-2-yl)-3,4-dihydro-2H-benzo[b][1,4]-oxazin-2-yl)propanoic acid], the 50% effective concentration (EC50) was less than 500 nM and the “TR-FRET Assay Max Response” value was “*** (The symbol “***” indicates a value in the range of greater than 150 to 200)”. In the same order, the values of `CC(C)(C[C@H]1CN(S(=O)(=O)c2cccc(C(F)(F)F)c2)c2cc(-c3cc(F)cc(F)c3Cl)ccc2O1)C(=O)O` [Compound 32U, (S)-3-(6-(2-chloro-3,5-difluoro-phenyl)-4-((3-(trifluoromethyl)-phenyl)sulfonyl)-3,4-dihydro-2H-benzo[b][1,4]oxazin-2-yl)-2,2-dimethylpropanoic acid] are less than 500 nM and “*** (The symbol “***” indicates a value in the range of greater than 150 to 200)”.

Regarding `O=C(O)C1(C[C@H]2CN(S(=O)(=O)c3cccc(C(F)(F)F)c3)c3cc(-c4cccc(C(F)(F)F)n4)ccc3O2)COC1` [Compound 51D, (S)-3-((4-((3-(trifluoromethyl)-phenyl)sulfonyl)-6-(6-(trifluoro-methyl)pyridin-2-yl)-3,4-dihydro-2H-benzo[b][1,4]oxazin-2-yl)methyl)oxetane-3-carboxylic acid], the EC50 was less than 500 nM and the “TR-FRET Assay Max Response” value is listed as “*** (The symbol “***” indicates a value in the range of greater than 150 to 200)”.
